The source of these data is ChEMBL document CHEMBL2321667, “Imidazopyridine-Based Fatty Acid Synthase Inhibitors That Show Anti-HCV Activity and in Vivo Target Modulation” (ACS Med Chem Lett, 2013).

For one data set, the target named is Fatty acid synthase (Rattus norvegicus, UniProt P12785).
The test system of a further data set is Hepatitis C virus. The data set can be described thus: microbe, parasite or virus in culture. To be noted: genotype 1b, Huh-7, 72 h.
A short description of data set [1]: in vitro. To be noted: human, huh-7.
Data set [2] in a line: in vitro. To be noted: dog, MDCK.
A short description of data set [3]: in vitro. To be noted: plasma.

Sequence of Fatty acid synthase (P12785 whole entry): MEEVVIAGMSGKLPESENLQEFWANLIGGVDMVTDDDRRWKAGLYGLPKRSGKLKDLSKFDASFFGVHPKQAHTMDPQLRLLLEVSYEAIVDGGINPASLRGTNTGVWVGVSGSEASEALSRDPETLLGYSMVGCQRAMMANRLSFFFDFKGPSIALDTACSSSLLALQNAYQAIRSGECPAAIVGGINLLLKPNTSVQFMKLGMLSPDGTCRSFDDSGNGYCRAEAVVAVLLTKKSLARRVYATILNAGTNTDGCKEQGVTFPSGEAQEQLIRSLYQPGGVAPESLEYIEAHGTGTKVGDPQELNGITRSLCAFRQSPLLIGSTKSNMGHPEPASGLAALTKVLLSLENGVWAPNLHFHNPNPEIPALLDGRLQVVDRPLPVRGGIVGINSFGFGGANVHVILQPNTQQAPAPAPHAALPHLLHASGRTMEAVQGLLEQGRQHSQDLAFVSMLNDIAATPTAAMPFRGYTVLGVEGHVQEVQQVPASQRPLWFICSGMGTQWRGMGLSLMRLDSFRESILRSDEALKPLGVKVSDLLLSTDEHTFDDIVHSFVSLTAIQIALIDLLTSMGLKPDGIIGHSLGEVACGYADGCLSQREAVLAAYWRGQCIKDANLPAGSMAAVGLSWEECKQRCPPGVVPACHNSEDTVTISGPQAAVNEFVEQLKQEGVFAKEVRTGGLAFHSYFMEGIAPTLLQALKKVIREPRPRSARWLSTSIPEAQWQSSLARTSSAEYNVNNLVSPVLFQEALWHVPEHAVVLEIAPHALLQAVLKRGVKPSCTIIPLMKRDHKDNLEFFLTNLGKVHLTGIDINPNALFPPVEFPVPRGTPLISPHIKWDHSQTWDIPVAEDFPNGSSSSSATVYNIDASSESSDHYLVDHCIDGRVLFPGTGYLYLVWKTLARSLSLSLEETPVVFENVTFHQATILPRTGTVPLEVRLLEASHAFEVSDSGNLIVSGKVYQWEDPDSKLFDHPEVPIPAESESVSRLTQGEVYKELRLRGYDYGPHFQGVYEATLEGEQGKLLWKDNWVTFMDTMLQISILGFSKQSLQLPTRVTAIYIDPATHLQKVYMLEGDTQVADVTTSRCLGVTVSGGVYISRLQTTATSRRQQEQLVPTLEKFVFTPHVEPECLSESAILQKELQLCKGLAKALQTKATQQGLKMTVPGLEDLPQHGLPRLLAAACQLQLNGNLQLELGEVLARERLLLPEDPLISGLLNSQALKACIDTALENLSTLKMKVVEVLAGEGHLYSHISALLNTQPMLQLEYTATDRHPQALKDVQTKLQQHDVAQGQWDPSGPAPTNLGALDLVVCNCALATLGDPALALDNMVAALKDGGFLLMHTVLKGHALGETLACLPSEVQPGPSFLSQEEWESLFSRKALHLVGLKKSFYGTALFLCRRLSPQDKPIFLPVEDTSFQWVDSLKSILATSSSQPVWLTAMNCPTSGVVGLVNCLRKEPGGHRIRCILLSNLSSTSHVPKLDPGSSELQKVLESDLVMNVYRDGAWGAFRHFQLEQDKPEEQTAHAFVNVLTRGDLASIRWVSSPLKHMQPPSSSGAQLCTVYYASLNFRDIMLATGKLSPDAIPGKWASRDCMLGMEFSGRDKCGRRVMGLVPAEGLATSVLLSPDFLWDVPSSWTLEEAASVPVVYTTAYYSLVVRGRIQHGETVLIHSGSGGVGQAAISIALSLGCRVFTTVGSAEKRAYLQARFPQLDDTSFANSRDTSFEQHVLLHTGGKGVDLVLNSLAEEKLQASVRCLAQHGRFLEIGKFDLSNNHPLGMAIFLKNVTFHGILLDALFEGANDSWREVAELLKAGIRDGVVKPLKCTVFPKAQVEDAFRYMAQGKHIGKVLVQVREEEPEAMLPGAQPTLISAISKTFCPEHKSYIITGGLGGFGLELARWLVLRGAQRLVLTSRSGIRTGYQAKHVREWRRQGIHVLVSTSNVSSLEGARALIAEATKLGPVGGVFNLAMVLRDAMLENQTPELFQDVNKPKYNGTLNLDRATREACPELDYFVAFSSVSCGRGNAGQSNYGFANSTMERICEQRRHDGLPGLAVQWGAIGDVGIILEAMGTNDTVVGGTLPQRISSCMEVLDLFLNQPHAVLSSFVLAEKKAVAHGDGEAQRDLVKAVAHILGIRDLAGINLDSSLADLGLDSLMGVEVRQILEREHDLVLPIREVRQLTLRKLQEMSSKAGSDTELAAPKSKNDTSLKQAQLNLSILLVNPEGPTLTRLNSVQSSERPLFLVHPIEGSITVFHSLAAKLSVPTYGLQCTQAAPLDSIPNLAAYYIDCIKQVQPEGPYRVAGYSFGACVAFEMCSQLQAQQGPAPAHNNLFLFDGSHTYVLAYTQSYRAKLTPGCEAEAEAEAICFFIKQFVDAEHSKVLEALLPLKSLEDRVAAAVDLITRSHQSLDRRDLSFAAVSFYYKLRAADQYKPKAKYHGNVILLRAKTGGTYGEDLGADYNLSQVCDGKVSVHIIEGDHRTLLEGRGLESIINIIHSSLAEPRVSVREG

What is called IC50 is the point on the concentration scale where inhibition reaches its midpoint. A higher IC50 goes with lower potency. With `Cc1ccc(C(=O)N2CCC(c3ccc(C#N)cc3)CC2)cc1-c1nc2ccncc2[nH]1`, the IC50 against Fatty acid synthase and in the data set on Hepatitis C virus was over 50000 nM throughout.
Regarding `Cc1ccc(C(=O)N2CCC(c3ccc(C#N)cc3)CC2)cc1-c1nc2ccccc2[nH]1`, the IC50 against Fatty acid synthase and in the data set with Hepatitis C virus was over 50000 nM in each case.
What is called EC50 is the concentration that produces a half-maximal response. High values mean lower potency in that assay, low ones higher potency in that assay. `N#Cc1ccc(C2CCN(C(=O)c3cccc(-c4nc5cc(N6CCCC6)ncc5[nH]4)c3)CC2)cc1` gave an IC50 on Fatty acid synthase of 2950 nM. In “in vitro [1]”, the CC50 at 72 h is over 3000 nM. This compound had an EC50 with Hepatitis C virus of 550 nM.
In “in vitro [1]”, `Cc1c(C(=O)N2CCC(c3ccc(C#N)cc3)CC2)cccc1-c1nc2cc(N3CCCC3)ncc2[nH]1` registered a CC50 at 72 h of 1900 nM. This compound also registered an EC50 in the data set with Hepatitis C virus of over 10000 nM.
In “in vitro [1]”, `Cc1cc(C)c(-c2nc3nc(N4CCC4)ccc3[nH]2)cc1C(=O)N1CCC(c2ccc(C#N)cc2)CC1` showed a CC50 at 72 h of over 3000 nM. For the same compound, a half-maximal effect in the data set on Hepatitis C virus (EC50) was put at 310 nM.
Consider `Cc1ccc(-c2nc3cc(N4CCCC4)ncc3[nH]2)cc1C(=O)N1CCC(c2ccc(C#N)cc2)CC1`, for which the CC50 at 72 h in the data set “in vitro [1]” is 8600 nM. Further, in the data set with Hepatitis C virus, a half-maximal effect (EC50) was put at 150 nM.
Consider `COCCN(C)c1cc2nc(-c3cc(C(=O)N4CCC(c5ccc(C#N)cc5)CC4)c(C)cc3C)[nH]c2cn1`, for which the IC50 on Fatty acid synthase was found to be 316 nM. Besides, the CC50 at 72 h in “in vitro [1]” is over 20000 nM. For the same compound, the EC50 with Hepatitis C virus was found to be 84 nM.
Compound `Cc1cc(C(=O)N2CCC(c3ccc(C#N)cc3)CC2)cc(-c2nc3cc(N4CCCC4)ncc3[nH]2)c1` had a CC50 at 72 h in “in vitro [1]” of over 10000 nM. For the same compound, the EC50 with Hepatitis C virus is over 10000 nM.
The compound `Cc1ccc(C(=O)N2CCC(c3ccc(C#N)cc3)CC2)cc1-c1nc2cc(N3CCN(C)CC3)ncc2[nH]1` showed a CC50 at 72 h in the data set “in vitro [1]” of 15000 nM. The compound also returned an EC50 in the data set on Hepatitis C virus of 830 nM.
Take `Cc1ccc(C(=O)N2CCC(c3ccc(C#N)cc3)CC2)cc1-c1nc2cc(N3CCC3)ncc2[nH]1`: the CC50 at 72 h in “in vitro [1]” is over 20000 nM. This compound showed an EC50 in the data set on Hepatitis C virus of 91 nM.
At Fatty acid synthase, `Cc1cc(C)c(-c2nc3cc(S(C)(=O)=O)cnc3[nH]2)cc1C(=O)N1CCC(c2ccc(C#N)cc2)CC1` gave an IC50 of 3850 nM. This compound displayed a CC50 at 72 h in “in vitro [1]” of over 20000 nM. The compound also yielded a concentration giving a half-maximal response (EC50) in the data set on Hepatitis C virus of 130 nM.
Turning to `Cc1cc(C)c(-c2nc3cc(N4CCOCC4)ncc3[nH]2)cc1C(=O)N1CCC(c2ccc(C#N)cc2)CC1`, the CC50 at 72 h in “in vitro [1]” is over 3000 nM. The EC50 in the data set with Hepatitis C virus was determined as 40 nM.
For orientation: Papp means a coefficient for how fast a substance crosses the barrier. High values mean ready permeation, low ones poor permeation. The term half-life denotes the time needed for the level to fall by half in the phase considered. `Cc1ccc(C(=O)N2CCC(c3ccc(C#N)cc3)CC2)cc1-c1nc2cc(N3CCCC3)ncc2[nH]1`: the CC50 at 72 h in “in vitro [1]” is over 20000 nM. For the same compound, the Papp in “in vitro [2]” was 8 ×10⁻⁶ cm/s. The compound also registered a half-life in “in vitro [3]” of over 10 h. The same compound registered an EC50 in the data set on Hepatitis C virus of 175 nM.
`Cc1ccc(C(=O)N2CCC(c3ccc(C#N)cc3)CC2)cc1NC(=O)c1ccc(N2CCCC2)nc1` displayed an IC50 against Fatty acid synthase of 3970 nM.
